Measured values: patent US20210285940A1, “Improved Fluorescent Resonance Energy Transfer-Based Biosensor Proteins And Their Methods of Use Thereof” (Pebble Labs Inc., priority 2018, published 2021)
“And” between values parts separate entries of the source, which are not always exact repeats. Equal values may be shown once.

What was measured:
[1] = Control experiments for photo-bleaching; format: physicochemical; details: three consecutive spectrum records, 20° C.
Method: For measurements associated with examination of ligand-induced response of TqLPNG biosensor fluorescence emission 0.1 mM BAI-2 stock solution was freshly prepared and contained 1 mM DPD and 4 mM boric acid in 50 mM HEPES buffer (pH 7.5) (Semmelhack et al., 2005). To test the biosensor fluorescence response for BAI-2 binding 400 μL samples having the same biosensor concentration (50 nM) and variable BAI-2 concentrations in 50 mM HEPES (pH 7.5)/0.4 mM boric acid/0.1 mM EDTA/0.15 M NaCl were prepared from the protein and the ligand stock solutions using analytical balances. Fluorescence emission spectra were taken following 3 min temperature equilibration of the sample within the temperature controlled cell holder (set for 20° C.).

[2] = TqLPNG fluorescence emission response towards BAI-2 binding at different NaCl concentrations; format: biochemical
Method: FIG. 8 (A-B): Response of the fluorescence emission spuctrum of TqLPNGh towards BAI-2 binding at different concentrations.of sodium chloride. Emission spectra (solid lines) were deconvoluted into the donor (dotted lines) and the acceptor (dashed lines) emission components, and the evaluation for the FRET efficiency (E values) was performed through enhancement in the acceptor emission referenced to the directly excited acceptor emission (the grey lines) as described under Materials and Methods. The spectra were recorded by using an excitation wavelength of 440 nm. Measurements were performed in a 50 mM HEPES (pH 7.5)/0.1 mM EDTA buffer (containing the specified amount of NaCl) with 50 nM TLPNGh.
FIG. 9: An example of fluorescence emission spectrum of TqLPNGh and its response to BAI-2 binding. (9A) Emisson spectra of 50 nM TqLPNGh in 50 mM HEPES (pH 7.5)/0.1 mM EDTA buffer in the absence (the grey line) and in the presence of 10 μM BAI-2 (the black line). The spectra were recorded by using a 440 nm excitation wavelength. (9B) Dependence of the BAI-2 binding TqLPNGh emission response (expressed as decrease in acceptor-to-donor emission ratio induced by BAI-2 binding) on concentration of NaCl.
TqLPNG fluorescence response towards BAI-2 binding was examined at different concentrations of NaCl (see FIG. 8). At any salt concentration, BAI-2 binding yielded an increase in the biosensor donor emission and the corresponding decrease in the acceptor emission, originated from the ligand-induced decrease in FRET between the donor and the acceptor chromophores. Indeed, for any salt concentration BAI-2 binding caused a decrease in FRET efficiency (follow the E-values in FIG. 8) and associated decrease in the acceptor-to-donor emission ratio. […] The observable BAI-2 binding amplitude was maximal at low salt buffer (−49%), strongly dropped at 0.15 M and became too small (for BAI-2 quantification applications) at 0.3 M and higher NaCl concentrations. […]
A Cary 300 spectrophotometer (Agilent/Varian Technologies) and FluoroMax fluorescence spectrophotometer (Horiba Scientific) equipped with Peltier-based temperature controlled cell holders were used for absorbance and fluorescence measurements, respectively. […] Fluorescence emission spectra were recorded in a 4 mm fluorescence cell by using 2 nm slit width at both excitation and emission monochromators. Typically, 50 nM protein concentrations were employed for fluorescence measurements. […]
FRET efficiency in TqLPNG was determined under variety of solution conditions by measurements of the emission spectra of TqLPNG (DA-species) alternatively excited at 440 nm and 505 nm. […]

[3] = Titration of TqLPNGh biosensor with BAI-2 monitored through acceptor-to-donor emission ratio; format: binding
Method: FIG. 13: Titration of TqLPNGh biosensor with autoinducer BAI-2 monitored through acceptor-to-donor emission ratio (A-to-D ratio). Measurements of TqLPNGh fluorescence emission spectra were performed in 50 mM HEPES (pH 7.5)/0.1 mM EDTA/0.4 mM boric acid//0.15 M NaCl buffer using 50 nM TqLPNGh. Emission spectra of TqLPNG were recorded by using 440 nm excitation. The values for the A-to-D ratio for the BIA-2 titration (the filled circles) were fitted to the phenomenological Hill equation to get BAI-2 concentration corresponding to the half decrease in A-to-D ratio (C50%). The values for A-to-D ratio corresponding to the control titration, i.e., titration of TqLPNGh with the ligand-free plain buffer, are shown as unfilled circles.
The values for D-to-A fluorescence ratio values BAI-2 concentration were plotted and then fitted with the phenomenological Hill equation or with the simple single site binding model. […] The presence of boric acid in the assay buffer (i.e., 50 mM HEPES (pH 7.5)/0.1 mM EDTA/0.15 M NaCl/0.4 mM boric acid) may be beneficial. Deficiency in boric acid may cause strong reduction in the apparent ligand affinity, yielding enhanced Kd-value and, therefore, a strong decrease in biosensor sensitivity.]
A Cary 300 spectrophotometer (Agilent/Varian Technologies) and FluoroMax fluorescence spectrophotometer (Horiba Scientific) equipped with Peltier-based temperature controlled cell holders were used for absorbance and fluorescence measurements, respectively. To characterize fluorescent proteins, all measurements (including TqLPNGh titration with BAI-2) were performed at 20° C. with proteins prepared in 50 mM HEPES buffer (pH 7.5)/0.1 mM EDTA, containing different NaCl concentrations. Fluorescence emission spectra were recorded in a 4 mm fluorescence cell by using 2 nm slit width at both excitation and emission monochromators. Typically, 50 nM protein concentrations were employed for fluorescence measurements. The protein stock solutions were prepared in 50 mM HEPES buffer (pH 7.5)/0.1 mM EDTA/0.3 M NaCl at 2 μM (for the TqLPNG) or 10 μM (for Tqh or NGh) concentration.

[4] = Prolonged storage of TqLPNG examined through size-exclusion chromatography; format: physicochemical
Method: FIG. 12: Accumulation of high order associates of TqLPNGh during its prolonged storage in the salt-free 50 mM HEPES (pH 7.5)/0.1 mM EDTA buffer at 4° C., examined through size-exclusion chromatography. The purified TqLPNG preparation (at ˜ 9 μM protein concentration) was stored at 4° C. in plain He buffer (containing 0.25 mM DTT and 0.25 mM TCEP) at 4° C. for about 3 weeks. 0.25 mL of the TqLPNGh solution was then mixed the equal volume of the appropriate buffer to get 0, 0.15 or 0.3 M NaCl final concentration. Following 1-2 hrs incubation (at 4° C.), the diluted protein was injected into Superdex 20010/300 column equlibrated with He, He+0.15 M NaCl or He+0.3 M NaCl buffer, respectively. The protein elution was detected through absorbance at 280 nm. The flow rate was 0.5 mL/min. The large overlapping peaks at 9-12 elution volume correspond to high order TqLPNG associates. Positions of peakes corresponding to TqLPNG dimer or monomer are marked with the arrows.
The reasonable question that follows deciphering the origin of the TqLPNG fluorescence emission response towards BAI-2 binding is to understand the optimal conditions for the biosensor-based determination of BAI-2 concentrations. Low NaCl conditions provide an increased change in acceptor-to-donor emission ratio for the BAI-2 binding favorable for accurate BAI-2 quantification. […] Thus, there should by a compromise between the binding amplitude of the observable signal (i.e., the decrease in the acceptor-to-donor emission ratio corresponding to fully saturated biosensor) and stability of the TqLPNG preparation (against the formation of high order associates).

Substance: TqLPNG: tripartite FRET biosensor fusion mTurquoise2-(24-365)LuxP-mNeonGreen; TqLPNGh carries C-terminal His6 tag (SEQ ID NO. 2), SEQ ID NO. 3 lacks it
- changes in the fluorescence spectrum (photo-bleaching control) [1]: no changes
- magnitude of decrease of the acceptor-to-donor emission ratio on BAI-2 titration ([2]; 50 mM HEPES (pH 7.5)/0.4 mM boric acid/0.1 mM EDTA, 0.15 M NaCl): ~17%
- observable BAI-2 binding amplitude ([2]; 0.3 M and higher NaCl): too small
- decrease in the acceptor to donor emission ratio upon autoinducer-2 binding ([2]; adjustable fluorescence response, maximum): up to 48%
- observable BAI-2 binding amplitude (decrease in acceptor-to-donor emission ratio, fully saturated) ([2]; low salt buffer): −49%
- EC50 ([3]; 50 nM TqLPNG, 50 mM HEPES (pH 7.5)/0.1 mM EDTA/0.15 M NaCl/0.4 mM boric acid, Hill equation fit, read-out: BAI-2 concentration corresponding to the half-transition (C50%) in emission response): 0.024 ± 0.001 µM
- Kd ([3]; 50 nM TqLPNG, 50 mM HEPES (pH 7.5)/0.1 mM EDTA/0.15 M NaCl/0.4 mM boric acid, single site binding model, read-out: BAI-2•TqLPNG dissociation constant (Kd)): 0.009 µM and 0.01 µM and ~0.01 µM
- higher sensitivity towards BAI-2 concentration as compared to mCLPY biosensor ([3]; from dissociation constants 10 nM versus 270 nM): more than 10 fold
- stability against formation of high order associates ([4]; 0.3 M NaCl, prolonged storage at 4° C.): no formation of ‘inactive’ high-order associates
- stability against formation of high order associates ([4]; HEPES (pH 7.5) buffer containing 0.15 M NaCl): good stability
- stability against formation of high order associates ([4]; prolonged storage in low salt buffer, 4° C.): accumulation of high-order TqLPNG associates
